One compound from patent US10851072B2 (THE REGENTS OF THE UNIVERSITY OF MICHIGAN, priority 2018, dated 2020) can be followed below.

pIC50: −log10 of the molar value.

Data set [1] relates to serum response element (SRE). Nature of the data set: SRE.L-Luciferase Reporter Assay. The format is cell-based. As to conditions: Homo sapiens; Table D; HEK-293T cells co-transfected with Gα12Q231L, SRE.L and pRL-TK plasmids; 19 hrs treatment. As to the method:
Biological activity of the compounds disclosed herein were assessed in the SRE.L luciferase reporter assay. HEK-293T cells were co-transfected with 2 ng of the Gα12Q231L expression plasmid along with 50 ng of the SRE.L and 7 ng of the pRL-TK luciferase reporter plasmids, as described in the Materials and Methods section. Cells were treated with 0 (vehicle, DMSO alone), 1, 3, 10, 30, and 100 μM of a compound disclosed herein for 19 hrs after transfection before lysis. Luminescence was determined as described in the Materials and Methods section. Just before cell lysis, the viability of the cells was measured using the WST-1 cell proliferation reagent as described in the Materials and Methods section. Data are expressed as percentage of inhibition (DMSO alone=0%). The experiments were performed three separate times to achieve n=3 in triplicate.
In general terms: A reporter such as luciferase makes a cellular process visible.

Data set [2] can be described thus: MLM metabolic stability (half-life). The class given is in vitro ADME, mice. As to conditions: mouse, mouse liver microsomes (MLM), 1 μM compound, beta-NADPH 1 mM, 60 min, LC-MS, read-out: MLM T1/2. As to the method:
Compounds (1 μM) were incubated with MLM in the presence of beta-NADPH (1 mM) for 60 min. The remaining drug concentration was measured using LC-MS using multiple reaction monitoring (MRM) mode. Both initial and overall disappearance rate and half-lives were calculated. […] Verapamil was run as a positive control in every assay; its half-life could not exceed 4 min or the assay was considered invalid.
(Liver microsomes are a subcellular fraction often used to study metabolism.)

The next data set concerns C57BL/6J mice. Nature of the data set: In vivo testing for antifibrotic effects (bleomycin skin injections). The following applies: skin of bleomycin-injected mice, A1 3 or 10 mg/kg PO daily, fourteen days. Here is the method: C57BL/6J mice were ordered from Jackson labs for delivery at 15-16 weeks of age. Mice were preconditioned with supplemental chow for two weeks prior to start of experiment. Mice were randomized by weight into four groups (vehicle, A1 (3 mg/kg), A1 (10 mg/kg), PBS). Each group consisted of two cages with four mice per cage. Drug stock solutions were aliquoted and stored at 4° C. for the duration of the study. Aliquots were warmed to 37° C. and briefly vortexed prior to filling the gavage syringes. Vehicle and A1 groups received daily bleomycin injections (0.1 mL, ID) each afternoon in a defined area of shaved dorsal skin. PBS control group received daily injections (0.1 mL, ID) of PBS in the afternoon. Mice were anesthetized with ketamine/xylazine for ID injections. […]
Fixed skin was paraffin embedded and sectioned at the University of Michigan Comprehensive Cancer Center Histology Core. […] Stained sections were analyzed with an Olympus BX51\DP72 microscope. Dermal thickness was determined by measuring the maximal distance between the epidermal-dermal junction and the dermal-subcutaneous fat junction. […]
Skin sections were weighed and hydrolyzed in 6M HCl at 120° C. for three hours. […] Absorbance was measured at 560 nm using a Synergy HT microplate reader (BioTek Instruments). […]

The pIC50 is −log10 of the IC50, conventionally taken in molar units. A lower pIC50 goes with a large IC50. Regarding `O=C(O)CCCSc1nnc(-c2ccc(C3CC3)cc2Cl)o1` [Compound A1, 4-((5-(2-chloro-4-cyclopropylphenyl)-1,3,4-oxadiazol-2-yl)thio)butanoic acid], the negative-log IC50 (pIC50) in data set [1] was 11.92. Further, the half-life at 1 μM in data set [2] stood at 47 min. Further, in the data set with C57BL/6J mice (Masson's trichrome, dermal thickness, FIG. 2), the collagen thickness result is listed as “reduction”. The hydroxyproline content entry in the data set with C57BL/6J mice (FIG. 1) is “reduction”.
